Entries after “also recorded” stand apart in the source; their conditions may differ.
Experiments:
[1] = system: human Glioblastoma; assay: Morphological changes of human Glioblastoma (Experimental Example 4); assay type: cell-based; conditions: 50 μg/ml
[2] = system: tumor; assay: General statements on antitumor activity; conditions: applicant's summary of Experimental Examples 1 to 6
[3] = system: tumor; conditions: general statement; cited from earlier work
[4] = system: Glioblastoma cancer cells; assay: Glioblastoma transplanted into the brain of rats, survival (Experimental Example 6); conditions: 5-fluorocytosine 4 ml (10 mg/ml) i.p. every other day; 0.02 ml cytosinedeaminase (1 IU/ml) or PBS to transplantation site
[5] = system: HeLa cells; assay: Growth inhibition of HeLa cells (Experimental Example 1); conditions: for number of cells: drug used alone (control)
[6] = general statement; cited from earlier work

Compound	morphological changes [1]	antitumor activity of the individual agents / of combined use [2]	antitumor activity [3]	Average days of survival [4]	number of cells ([5]; 2 days elapsed, 24 h contact)	number of cells ([5]; 4 days elapsed, 24 h contact)	number of cells ([5]; 6 days elapsed, 24 h contact)	antitumor activity when used singly ([5]; HeLa cells, used alone, result in words)	number of cells ([5]; day 0, before 24 h treatment)	toxicity [6]
Nc1nc(=O)[nH]cc1F [5-fluorocytosine]	morphological changes such as the disintegration of the cytoplasm and the deformation of the nucleus were evidently noted	neither 5-fluorocytosine nor cytosinedeaminase has antitumor activity	no antitumor activity	32 days	73 ×10^-4 cells/ml	120 ×10^-4 cells/ml	205 ×10^-4 cells/ml	do not have any antitumor activity	29 ×10^-4 cells/ml	–
O=c1[nH]cc(F)c(=O)[nH]1 [5-fluorouracil]	–	–	intense antitumor activity; also recorded: effective against solid tumors	–	–	–	–	–	–	intense toxicity in oral and intravenous administrations
O=c1[nH]c(=O)n(C2CCCO2)cc1F (stereo not drawn) [tetrahydrofuryl 5-fluorouracil]	–	–	–	–	–	–	–	–	–	low toxicity

Reference: US4521406A, “Antitumor agent” (priority 1980, dated 1985)
